Assay results taken from PubChem BioAssay (NCI).
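Grown in 96-well plates, cells were treated for 48 hours with each compound at five concentrations. Insufficient inhibition: endpoint recorded as highest concentration tested. Here, GI50 denotes the concentration required for 50% inhibition of growth. TGI: concentration producing complete growth inhibition.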

Key:
Test in all cases: NCI tumour cell line growth inhibition, 48 h
HS 578T breast = tested on: HS 578T breast
RXF-631 renal = tested on: RXF-631 renal
DMS 273 small cell lung = tested on: DMS 273 small cell lung
DLD-1 colon = tested on: DLD-1 colon
LXFL 529 NSCLC = tested on: LXFL 529 NSCLC
P388/ADR leukemia = tested on: P388/ADR leukemia
P388 leukemia = tested on: P388 leukemia
SN12K1 renal = tested on: SN12K1 renal

CN(C)c1ccc(C(Cc2ccc3ccccc3n2)Cc2ccc3ccccc3n2)cc1
GI50 (HS 578T breast): 6.22 µM
TGI (HS 578T breast): > 100 µM

CCOC(=O)C(O)(NC(=O)c1ccccc1F)C(F)(F)F (stereo not drawn)
TGI (HS 578T breast): > 100 µM

CCCCCCCCCCCCCC[n+]1ccc2c(C)c3c(c(C)c2c1)c1cc(O)ccc1n3CC
GI50 (HS 578T breast): 0.975 µM
TGI (HS 578T breast): 3.67 µM

COc1cc(/C=C/C(=O)c2c(C)nc3ccccc3c2C)ccc1OCCCOc1cc2c(cc1OC)C(=O)N1CCC[C@H]1C=N2
GI50 (HS 578T breast): 0.0209 µM
TGI (HS 578T breast): 0.0577 µM

CO/N=C(\C)COc1ccc2c(=O)c(-c3ccccc3)coc2c1
GI50 (HS 578T breast): 63.1 µM
TGI (HS 578T breast): > 100 µM

COc1cc(C2C(C(=O)O)=C(COC(C)=O)Oc3cc4c(cc32)OCO4)cc(OC)c1OC (stereo not drawn)
TGI (RXF-631 renal): > 100 µM
TGI (DMS 273 small cell lung): > 100 µM

CNC(=O)N(C)COC
TGI (DLD-1 colon): > 100 µM
TGI (LXFL 529 NSCLC): > 100 µM

O=C(O)c1cn2c3c(cc(N4CCN(CCO)CC4)cc3c1=O)SCC2
TGI (DLD-1 colon): > 100 µM
TGI (P388/ADR leukemia): > 100 µM
TGI (P388 leukemia): > 100 µM
TGI (SN12K1 renal): > 100 µM
TGI (DMS 273 small cell lung): > 100 µM
